Test results: patent US20240317721A1, “PYRAZOLYL DERIVATIVES AS INHIBITORS OF THE KRAS MUTANT PROTEIN” (NOVARTIS AG, priority 2021, published 2024)

Molecular target: KRasG12C (M1-K169, biotinylated on the N-terminus) (Homo sapiens (Human), UniProt P01116, G12C)
Test: Covalent competition assay: scintillation proximity assay (SPA) quantifying covalent modification of KRASG12C
Type: binding
Details: competition with radiolabeled covalent probe (Compound B/Compound A), 2 hours incubation, 10 nM KRasG12C
Method in brief: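 Scintillation proximity readout after streptavidin bead capture (30 min) of biotinylated KRasG12C(M1-K169):GDP, 10 nM final, which was covalently labelled over 2 h by 25 nM radio-probe plus 475 nM cold probe unless blocked by compound.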

Point of comparison: `C/C=C/C(=O)N1CC2(CC(n3nc(N4CCN(C5COC5)CC45CCC5)c(-c4c(Cl)c(C)cc5[nH]ncc45)c3C)C2)C1` (single isomer, unassigned) [Example 138b, (E)-1-(6-(4-(5-chloro-6-methyl-1H-indazol-4-yl)-5-methyl-3-(8-(oxetan-3-yl)-5,8-diazaspiro[3.5]nonan-5-yl)-1H-pyrazol-1-yl)-2-azaspiro[3.3]heptan-2-yl)but-2-en-1-one], IC50 2.78 µM. Against it:
- C=CC(=O)N1CC2(CC(n3nc(N4CCN(C(C)C)CC45CCC5)c(-c4c(Cl)c(C)cc5[nH]ncc45)c3C)C2)C1 (single isomer, unassigned) [Example 131a, 1-(6-(4-(5-chloro-6-methyl-1H-indazol-4-yl)-3-(8-isopropyl-5,8-diazaspiro[3.5]nonan-5-yl)-5-methyl-1H-pyrazol-1-yl)-2-azaspiro[3.3]heptan-2-yl)prop-2-en-1-one] — higher, > 5 µM
- C=CC(=O)N1CC2(CC(n3nc(N4CCN(C(C)C)CC45CCC5)c(-c4c(Cl)c(C)cc5[nH]ncc45)c3C)C2)C1 (single isomer, unassigned) [Example 131b, 1-(6-(4-(5-chloro-6-methyl-1H-indazol-4-yl)-3-(8-isopropyl-5,8-diazaspiro[3.5]nonan-5-yl)-5-methyl-1H-pyrazol-1-yl)-2-azaspiro[3.3]heptan-2-yl)prop-2-en-1-one] — 37-fold lower, 0.076 µM
- C=CC(=O)N1CC2(CC(n3nc(N4CCN(C5CCOC5)CC45CCC5)c(-c4c(Cl)c(C)cc5[nH]ncc45)c3C)C2)C1 (single isomer, unassigned) [Example 132a, 1-(6-(4-(5-chloro-6-methyl-1H-indazol-4-yl)-5-methyl-3-(8-(tetrahydrofuran-3-yl)-5,8-diazaspiro[3.5]nonan-5-yl)-1H-pyrazol-1-yl)-2-azaspiro[3.3]heptan-2-yl)prop-2-en-1-one] — 4-fold lower, 0.697 µM
- C=CC(=O)N1CC2(CC(n3nc(N4CCN(C5CCOC5)CC45CCC5)c(-c4c(Cl)c(C)cc5[nH]ncc45)c3C)C2)C1 (single isomer, unassigned) [Example 132b, 1-(6-(4-(5-chloro-6-methyl-1H-indazol-4-yl)-5-methyl-3-(8-(tetrahydrofuran-3-yl)-5,8-diazaspiro[3.5]nonan-5-yl)-1H-pyrazol-1-yl)-2-azaspiro[3.3]heptan-2-yl)prop-2-en-1-one] — 1.6-fold higher, 4.5 µM
- C=CC(=O)N1CC2(CC(n3nc(N4CCN(C5CCOC5)CC45CCC5)c(-c4c(Cl)c(C)cc5[nH]ncc45)c3C)C2)C1 (single isomer, unassigned) [Example 132c, 1-(6-(4-(5-chloro-6-methyl-1H-indazol-4-yl)-5-methyl-3-(8-(tetrahydrofuran-3-yl)-5,8-diazaspiro[3.5]nonan-5-yl)-1H-pyrazol-1-yl)-2-azaspiro[3.3]heptan-2-yl)prop-2-en-1-one] — 120-fold lower, 0.024 µM
- C=CC(=O)N1CC2(CC(n3nc(N4CCN(C5CCOC5)CC45CCC5)c(-c4c(Cl)c(C)cc5[nH]ncc45)c3C)C2)C1 (single isomer, unassigned) [Example 132d, 1-(6-(4-(5-chloro-6-methyl-1H-indazol-4-yl)-5-methyl-3-(8-(tetrahydrofuran-3-yl)-5,8-diazaspiro[3.5]nonan-5-yl)-1H-pyrazol-1-yl)-2-azaspiro[3.3]heptan-2-yl)prop-2-en-1-one] — 96-fold lower, 0.029 µM
- C=CC(=O)N1CC2(CC(n3nc(N4CCN(C5COC5)C[C@]4(C)CC)c(-c4c(Cl)c(C)cc5[nH]ncc45)c3C)C2)C1 (single isomer, unassigned) [Example 133a] — 1.7-fold lower, 1.6 µM
- C=CC(=O)N1CC2(CC(n3nc(N4CCN(C5COC5)C[C@]4(C)CC)c(-c4c(Cl)c(C)cc5[nH]ncc45)c3C)C2)C1 (single isomer, unassigned) [Example 133b] — 560-fold lower, 0.005 µM
- C=CC(=O)N1CC2(CC(n3nc(N4CCN(C5CCOCC5)CC4(C)C)c(-c4c(Cl)c(C)cc5[nH]ncc45)c3C)C2)C1 (single isomer, unassigned) [Example 134a, 1-(6-(4-(5-chloro-6-methyl-1H-indazol-4-yl)-3-(2,2-dimethyl-4-(tetrahydro-2H-pyran-4-yl)piperazin-1-yl)-5-methyl-1H-pyrazol-1-yl)-2-azaspiro[3.3]heptan-2-yl)prop-2-en-1-one] — higher, > 5 µM
- C=CC(=O)N1CC2(CC(n3nc(N4CCN(C5CCOCC5)CC4(C)C)c(-c4c(Cl)c(C)cc5[nH]ncc45)c3C)C2)C1 (single isomer, unassigned) [Example 134b, 1-(6-(4-(5-chloro-6-methyl-1H-indazol-4-yl)-3-(2,2-dimethyl-4-(tetrahydro-2H-pyran-4-yl)piperazin-1-yl)-5-methyl-1H-pyrazol-1-yl)-2-azaspiro[3.3]heptan-2-yl)prop-2-en-1-one] — 60-fold lower, 0.046 µM
- C=CC(=O)N1CC2(CC(n3nc(N4CCN(C5CC6(COC6)C5)CC45CCC5)c(-c4c(Cl)c(C)cc5[nH]ncc45)c3C)C2)C1 (single isomer, unassigned) [Example 135a, 1-(6-(3-(8-(2-oxaspiro[3.3]heptan-6-yl)-5,8-diazaspiro[3.5]nonan-5-yl)-4-(5-chloro-6-methyl-1H-indazol-4-yl)-5-methyl-1H-pyrazol-1-yl)-2-azaspiro[3.3]heptan-2-yl)prop-2-en-1-one] — higher, > 5 µM
- C=CC(=O)N1CC2(CC(n3nc(N4CCN(C5CC6(COC6)C5)CC45CCC5)c(-c4c(Cl)c(C)cc5[nH]ncc45)c3C)C2)C1 (single isomer, unassigned) [Example 135b, 1-(6-(3-(8-(2-oxaspiro[3.3]heptan-6-yl)-5,8-diazaspiro[3.5]nonan-5-yl)-4-(5-chloro-6-methyl-1H-indazol-4-yl)-5-methyl-1H-pyrazol-1-yl)-2-azaspiro[3.3]heptan-2-yl)prop-2-en-1-one] — 200-fold lower, 0.014 µM
- C=CC(=O)N1CC2(CC(n3nc(N4CCN(C5COC5)C5COCC54)c(-c4c(Cl)c(C)cc5[nH]ncc45)c3C)C2)C1 (single isomer, unassigned) [Example 136a, 1-(6-(4-(5-chloro-6-methyl-1H-indazol-4-yl)-5-methyl-3-((4aS*,7aS*)-4-(oxetan-3-yl)hexahydrofuro[3,4-b]pyrazin-1(2H)-yl)-1H-pyrazol-1-yl)-2-azaspiro[3.3]heptan-2-yl)prop-2-en-1-one] — 3.3-fold lower, 0.846 µM
- C=CC(=O)N1CC2(CC(n3nc(N4CCN(C5COC5)C5COCC54)c(-c4c(Cl)c(C)cc5[nH]ncc45)c3C)C2)C1 (single isomer, unassigned) [Example 137b, 1-(6-(4-(5-chloro-6-methyl-1H-indazol-4-yl)-5-methyl-3-((4aS*,7aS*)-4-(oxetan-3-yl)hexahydrofuro[3,4-b]pyrazin-1(2H)-yl)-1H-pyrazol-1-yl)-2-azaspiro[3.3]heptan-2-yl)prop-2-en-1-one] — 2.9-fold lower, 0.975 µM
- C/C=C/C(=O)N1CC2(CC(n3nc(N4CCN(C5COC5)CC45CCC5)c(-c4c(Cl)c(C)cc5[nH]ncc45)c3C)C2)C1 (single isomer, unassigned) [Example 138a, (E)-1-(6-(4-(5-chloro-6-methyl-1H-indazol-4-yl)-5-methyl-3-(8-(oxetan-3-yl)-5,8-diazaspiro[3.5]nonan-5-yl)-1H-pyrazol-1-yl)-2-azaspiro[3.3]heptan-2-yl)but-2-en-1-one] — higher, > 5 µM
